Results reported in ChEMBL document CHEMBL5352417, “Design, synthesis, and biological evaluation of aromatic tertiary amine derivatives as selective butyrylcholinesterase inhibitors for the treatment of Alzheimer's disease” (Eur J Med Chem, 2022).

Tests used:
[1] = biological target: Acetylcholinesterase (Electrophorus electricus) (UniProt O42275); test: Inhibition of electric eel AchE using acetylthiocholine iodide as substrate at <10 uM measured for 3 mins by Ellman's method relative to control
[2] = biological target: Cholinesterase (Equus caballus) (UniProt P81908); test: Inhibition of horse serum BuChE using butyrylthiocholine iodide as substrate at <10 uM measured for 3 mins by Ellman's method relative to control; format: cell-free
Cholinesterase [3] = biological target: Cholinesterase (Equus caballus, UniProt P81908); test: Inhibition of horse serum BuChE using butyrylthiocholine iodide as substrate measured for 3 mins by Ellman's method; format: cell-free
Cholinesterase [4] = biological target: Cholinesterase (Homo sapiens, UniProt P06276); test: Inhibition of human BChE using butyrylthiocholine iodide as substrate measured for 3 mins by Ellman's method
[5] = Effective permeability of compound at 25 ug/ml incubated for 18 hrs by PAMPA-BBB assay; format: ADME; settings: dose 25 µg/ml, read-out: Peff
[6] = Neurotoxicity against rat PC12 cells assessed as survival rate incubated for 24 hrs by MTT assay relative to control; format: toxicity, cell-based, PC-12; parameters: concentration or dose not given beside the values; settings: read-out: Survival
[7] = Neurotoxicity against human SH-SY5Y cells assessed as survival rate incubated for 24 hrs by MTT assay relative to control; format: toxicity, cell-based; parameters: concentration or dose not given beside the values; settings: read-out: Survival
[8] = Neurotoxicity against mouse BV-2 cells incubated for 24 hrs by MTT assay; format: toxicity, cell-based; settings: read-out: LD50
[9] = Neurotoxicity against mouse HT-22 cells assessed as survival rate incubated for 24 hrs by MTT assay relative to control; format: toxicity, cell-based; parameters: concentration or dose not given beside the values; settings: read-out: Survival
[10] = Neurotoxicity against human SH-SY5Y cells incubated for 24 hrs by MTT assay; format: toxicity, cell-based; settings: read-out: LD50
[11] = Neurotoxicity against rat PC12 cells incubated for 24 hrs by MTT assay; format: toxicity, cell-based, PC-12; settings: read-out: LD50
[12] = Neurotoxicity against mouse HT-22 cells incubated for 24 hrs by MTT assay; format: toxicity, cell-based; settings: read-out: LD50

Chain of Cholinesterase (Equus caballus, UniProt P81908) (P81908 whole entry): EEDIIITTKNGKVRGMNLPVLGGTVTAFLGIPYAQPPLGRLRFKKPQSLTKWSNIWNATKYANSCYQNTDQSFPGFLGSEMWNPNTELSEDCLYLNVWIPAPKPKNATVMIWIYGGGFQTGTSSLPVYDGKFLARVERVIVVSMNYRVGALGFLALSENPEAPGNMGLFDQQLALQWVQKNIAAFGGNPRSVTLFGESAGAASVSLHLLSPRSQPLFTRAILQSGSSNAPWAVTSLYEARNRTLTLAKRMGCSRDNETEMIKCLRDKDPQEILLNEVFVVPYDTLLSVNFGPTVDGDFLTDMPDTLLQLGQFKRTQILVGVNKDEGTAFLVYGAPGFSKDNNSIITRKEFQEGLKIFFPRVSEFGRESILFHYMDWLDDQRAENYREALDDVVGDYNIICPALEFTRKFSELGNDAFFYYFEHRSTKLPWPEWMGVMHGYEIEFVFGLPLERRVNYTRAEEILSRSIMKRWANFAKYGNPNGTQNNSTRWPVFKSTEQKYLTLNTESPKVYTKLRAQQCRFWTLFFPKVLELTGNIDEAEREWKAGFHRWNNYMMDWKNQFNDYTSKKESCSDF
Chain of Cholinesterase (Equus caballus) (P81908 whole entry): as above
Chain of Acetylcholinesterase (Electrophorus electricus) (O42275 24-633 limits assumed): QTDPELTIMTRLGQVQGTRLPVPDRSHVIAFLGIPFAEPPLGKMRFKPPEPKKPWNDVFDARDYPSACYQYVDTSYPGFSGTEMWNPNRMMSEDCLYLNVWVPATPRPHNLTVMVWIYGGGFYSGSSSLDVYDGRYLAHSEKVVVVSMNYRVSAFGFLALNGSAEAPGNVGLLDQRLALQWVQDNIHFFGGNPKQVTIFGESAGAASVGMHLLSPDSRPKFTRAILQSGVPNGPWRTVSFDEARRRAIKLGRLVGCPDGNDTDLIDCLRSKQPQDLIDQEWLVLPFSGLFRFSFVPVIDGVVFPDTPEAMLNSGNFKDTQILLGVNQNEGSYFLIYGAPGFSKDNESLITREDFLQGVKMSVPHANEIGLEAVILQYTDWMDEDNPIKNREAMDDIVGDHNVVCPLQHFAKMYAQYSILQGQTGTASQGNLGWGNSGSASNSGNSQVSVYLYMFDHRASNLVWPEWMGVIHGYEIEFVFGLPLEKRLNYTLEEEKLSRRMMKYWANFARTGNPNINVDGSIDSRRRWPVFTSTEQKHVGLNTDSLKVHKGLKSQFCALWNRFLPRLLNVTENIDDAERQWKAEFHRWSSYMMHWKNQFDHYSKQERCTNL
Chain of Cholinesterase (Homo sapiens, UniProt P06276) (P06276 whole entry): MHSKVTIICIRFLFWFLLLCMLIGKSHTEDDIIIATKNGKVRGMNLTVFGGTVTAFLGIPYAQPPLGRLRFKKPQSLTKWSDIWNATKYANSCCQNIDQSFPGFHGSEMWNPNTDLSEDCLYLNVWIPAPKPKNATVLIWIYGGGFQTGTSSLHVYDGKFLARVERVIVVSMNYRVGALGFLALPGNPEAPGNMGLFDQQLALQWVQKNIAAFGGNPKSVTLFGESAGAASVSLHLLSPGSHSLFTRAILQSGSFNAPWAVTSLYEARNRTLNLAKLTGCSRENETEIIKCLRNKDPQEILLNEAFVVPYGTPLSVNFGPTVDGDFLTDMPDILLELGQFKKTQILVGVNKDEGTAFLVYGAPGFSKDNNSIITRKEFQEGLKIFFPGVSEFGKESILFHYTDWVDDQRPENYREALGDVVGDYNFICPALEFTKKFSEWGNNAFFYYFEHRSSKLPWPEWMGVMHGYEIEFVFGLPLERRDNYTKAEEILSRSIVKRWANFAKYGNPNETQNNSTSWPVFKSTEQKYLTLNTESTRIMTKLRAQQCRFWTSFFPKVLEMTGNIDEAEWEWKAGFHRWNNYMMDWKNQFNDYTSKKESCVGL

Compound	inhibition [1]	inhibition [2]	IC50 (Cholinesterase [3])	other results
Cc1cccc(NC(=O)CN(Cc2ccccc2)Cc2ccco2)c1	13.3%	57.8%	7.33 µM	–
CC(C)CN(CCCc1ccccc1)Cc1ccc2ccccc2c1	19.4%	54.7%	4.04 µM	IC50 (Cholinesterase [4]): 0.024 µM; Papp at 18 h, 25 ug/ml [5]: 9.87 ×10⁻⁶ cm/s; viability at 24 h [6]: 86.3%; viability at 24 h [7]: 155%; CC50 at 24 h [8]: 48.7 µM; viability at 24 h [9]: 83.5%
O=C(CN(Cc1ccccc1)Cc1ccco1)Nc1ccc2c(c1)OCO2	15.2%	57.3%	8.26 µM	–
COc1ccc(NC(=O)CN(Cc2ccccc2)Cc2ccco2)cc1	18.2%	21.6%	121 µM	–
Cc1cccc(NC(=O)CN(Cc2ccco2)Cc2c[nH]c3ccccc23)c1C	18.2%	52.3%	10.9 µM	–
c1ccc(CCCN(Cc2ccc3ccccc3c2)Cc2ccco2)cc1	13.4%	42.5%	15.7 µM	–
O=C(CN(Cc1ccccc1)Cc1ccco1)Nc1ccccc1Cl	17.5%	50.5%	9.96 µM	–
O=C(CN(Cc1ccc2ccccc2c1)Cc1ccco1)Nc1ccccc1	16.9%	62.9%	2.26 µM	Papp at 18 h, 25 ug/ml [5]: 7.81 ×10⁻⁶ cm/s; viability at 24 h [6]: 100%; viability at 24 h [7]: 90.7%; CC50 at 24 h [8]: 14 µM; viability at 24 h [9]: 86.5%
CCCCN(CC(=O)Nc1ccccc1C)Cc1ccc2ccccc2c1	21.9%	77.9%	1.48 µM	IC50 (Cholinesterase [4]): 0.18 µM; Papp at 18 h, 25 ug/ml [5]: 13.9 ×10⁻⁶ cm/s; viability at 24 h [6]: 49.1%; CC50 at 24 h [10]: 70.2 µM; CC50 at 24 h [8]: 19 µM; viability at 24 h [9]: 83.1%
O=C(CN(Cc1ccccc1)Cc1ccco1)Nc1ccc(C(F)(F)F)cc1	13.4%	50.9%	6.8 µM	–
O=C(CN(Cc1ccco1)Cc1ccccc1[N+](=O)[O-])Nc1ccccc1	15.8%	61.9%	1.3 µM	Papp at 18 h, 25 ug/ml [5]: 4.93 ×10⁻⁶ cm/s
N#Cc1ccccc1NC(=O)CN(Cc1ccccc1)Cc1ccco1	10.3%	36.6%	118 µM	–
O=C(CN(Cc1ccccc1)Cc1ccco1)Nc1cccc2ccccc12	13.6%	63%	3.53 µM	–
O=C(CN(Cc1ccccc1)Cc1ccco1)Nc1ccc2ccccc2c1	13.9%	50.4%	9.77 µM	–
Cc1cccc(NC(=O)CN(Cc2ccc3ccccc3c2)Cc2ccco2)c1	15.1%	70.5%	1.74 µM	Papp at 18 h, 25 ug/ml [5]: 9.07 ×10⁻⁶ cm/s; viability at 24 h [6]: 105%; viability at 24 h [7]: 91.7%; CC50 at 24 h [8]: 24.9 µM; viability at 24 h [9]: 91.4%
N#Cc1ccc(NC(=O)CN(Cc2ccccc2)Cc2ccco2)cc1	9.68%	28.6%	710 µM	–
Cc1ccccc1NC(=O)CN(Cc1ccco1)Cc1c[nH]c2ccccc12	14.2%	64.7%	4.39 µM	–
O=C(CN(Cc1ccccc1)Cc1ccco1)Nc1cccc(F)c1	17.3%	47%	31.7 µM	–
O=C(CN(Cc1ccccc1)Cc1ccco1)Nc1ccccc1F	14.1%	50.9%	8.86 µM	–
Cc1cccc(NC(=O)CN(Cc2ccccc2)Cc2ccco2)c1C	19.7%	61.9%	2.67 µM	Papp at 18 h, 25 ug/ml [5]: 9.47 ×10⁻⁶ cm/s; CC50 at 24 h [11]: 32.1 µM; CC50 at 24 h [10]: 35 µM; CC50 at 24 h [8]: 16.6 µM; CC50 at 24 h [12]: 46.8 µM
COc1cc(NC(=O)CN(Cc2ccccc2)Cc2ccco2)cc(OC)c1OC	16.1%	18.9%	52.3 µM	–

Compound	inhibition [1]	inhibition [2]	IC50 (Cholinesterase [3])	other results
Cc1ccccc1NC(=O)CN(Cc1ccccc1)Cc1ccco1	14.2%	54.7%	5.46 µM	–
O=C(CN(Cc1ccccc1)Cc1ccco1)Nc1ccccc1	12.6%	39.6%	15.4 µM	–
O=C(CN(Cc1ccccc1)Cc1ccco1)Nc1ccc(F)cc1	14.5%	47.1%	28.3 µM	–
O=C(CN(Cc1ccccc1)Cc1ccco1)Nc1cccc(Cl)c1	19.6%	42.8%	47.4 µM	–
Cc1cccc(NC(=O)CN(Cc2ccc3ccccc3c2)Cc2ccco2)c1C	15.3%	48.1%	11 µM	–
CN(C)CCCN1c2ccccc2Sc2ccc(Cl)cc21 [CHLORPROMAZINE]	–	–	–	Papp at 18 h, 25 ug/ml [5]: 6.69 ×10⁻⁶ cm/s
Cc1ccc(NC(=O)CN(Cc2ccccc2)Cc2ccco2)cc1	12.8%	37.5%	149 µM	–
Cc1ccccc1NC(=O)CN(Cc1ccc2ccccc2c1)C1CCCCC1	25.3%	57.5%	4.26 µM	–
COc1ccccc1NC(=O)CN(Cc1ccccc1)Cc1ccco1	14.7%	44.2%	26.4 µM	–
Cc1cccc(NC(=O)CN(Cc2ccco2)Cc2c[nH]c3ccccc23)c1	14.3%	55.2%	6.61 µM	–
CCCN(CCCc1ccccc1)Cc1ccc2ccccc2c1	21.4%	80.3%	1.45 µM	IC50 (Cholinesterase [4]): 0.03 µM; Papp at 18 h, 25 ug/ml [5]: 10.3 ×10⁻⁶ cm/s; CC50 at 24 h [11]: 77.8 µM; viability at 24 h [7]: 62.6%; CC50 at 24 h [8]: 29 µM; CC50 at 24 h [12]: 54.6 µM
O=C(CN(Cc1ccccc1)Cc1ccco1)Nc1cccc(Br)c1	13.4%	54.7%	6.23 µM	–
Cc1ccccc1NC(=O)CN(Cc1ccc2ccccc2c1)Cc1ccco1	15.9%	70.6%	1.22 µM	Papp at 18 h, 25 ug/ml [5]: 5.67 ×10⁻⁶ cm/s; viability at 24 h [6]: 67.3%; viability at 24 h [7]: 69.4%; CC50 at 24 h [8]: 10.9 µM; viability at 24 h [9]: 67.1%
O=C(CN(Cc1ccccc1)Cc1ccco1)Nc1cnc2ccccc2c1	13.2%	29.6%	27.9 µM	–
CCCN(CC(=O)Nc1ccccc1C)Cc1ccc2ccccc2c1	22.9%	91.3%	0.19 µM	IC50 (Cholinesterase [4]): 0.027 µM; Papp at 18 h, 25 ug/ml [5]: 11.9 ×10⁻⁶ cm/s; CC50 at 24 h [11]: 45.9 µM; viability at 24 h [7]: 52.8%; CC50 at 24 h [8]: 17.6 µM; viability at 24 h [9]: 51.6%
O=C(CN(Cc1ccco1)Cc1ccco1)Nc1ccccc1	12.6%	47.3%	7.81 µM	–
C[C@]12CC[C@@H]3c4ccc(O)cc4CC[C@H]3[C@@H]1CC[C@@H]2O [ESTRADIOL]	–	–	–	Papp at 18 h, 25 ug/ml [5]: 14.6 ×10⁻⁶ cm/s
COc1cccc(NC(=O)CN(Cc2ccccc2)Cc2ccco2)c1	9.2%	50.1%	24.8 µM	–
O=C(CN(Cc1ccccc1)Cc1ccco1)Nc1cccc(F)c1F	18%	50.1%	13.3 µM	–
O=C(CN(Cc1ccco1)Cc1cccc2ccccc12)Nc1ccccc1	19.6%	47.1%	21.7 µM	–
Cc1ccccc1NC(=O)CN(Cc1ccc2ccccc2c1)CC(C)(C)C	19.6%	64.6%	4.1 µM	–
